Values quoted from earlier work as cited in patent US8674081B2, “Methods and compositions to elicit multivalent immune responses against dominant and subdominant epitopes, expressed on cancer cells and tumor stroma” (Mankind Corporation, priority 2005, dated 2014).

Key:
[1] = stated as 'has been shown'
human PBMC = settings: stated as 'has been shown'
MHC class I = settings: stated as 'has been shown'

| Sequence | CTL / anti-tumor immune response, in vivo immunization in mice [1] | CTL / anti-tumor immune response, in vitro immunization of human PBMC (human PBMC) | MHC class I binding relative to native epitope (MHC class I) |
| --- | --- | --- | --- |
| GLPSIPVHPV [PSMA288-297 I297V] | significant CTL responses | significant CTL responses | elevated |
| GLPSIPVHPI (listed as Homo sapiens) [PSMA288-297] | significant CTL responses | significant CTL responses | – |
| SLLQHLIGL [PRAME425-433] | strong anti-tumor immune responses | strong anti-tumor immune responses | – |
